Assays:
Type in all cases: in vivo, rat
[1] = test system: ear swelling induced by croton oil; assay: Ear edema test; conditions: 1 mg/kg topical, 6 hr
Experimental: The test animals were Sprague/Dawley rats weighing approximately 150 grams each. In treatment groups, selected amounts of the test compound were dissolved in acetone containing 5% croton oil and 50 microliters of the solution were applied to the inner surface of the right ear of the rats. A control group was identically treated with vehicle only, i.e. 5% croton oil in acetone. Six hours after croton oil challenge, a constant region of each ear was removed by dissection under anesthesia. Then, 48 hours after steroid treatment, the animals were sacrificed and the thymi and adrenals were removed and weighed. The test results showing the inhibitory effect of topically applied steroids on the ear swelling induced by croton oil are summarized in Table II below.

[2] = test system: granulation tissue formation caused by implantation of cotton pellets; assay: Granuloma formation test (local cotton pellet granuloma assay)
Experimental: The test compound was dissolved in acetone and aliquots of varying concentrations were injected into cotton pellets. The pellets were dried and then one pellet was implanted beneath the skin of each test rat. Six days later, the animals were sacrificed and the granulation tissue (granuloma) which formed in and around the implanted pellet was removed, dried and weighed. In addition, the thymi and adrenals were removed and weighed.

thymus weight in rats = assay: Thymus inhibition testing (subcutaneous administration); conditions: for Body weight gain / Thymus / Thymus Inhibition: Table VII, three days
Experimental: Several further studies were undertaken to determine the effects of selected compounds of the invention on thymi weights in rats when the drugs were systemically administered. In each of these studies, male Sprague-Dawley rats were used. […] On the fifth day (48 hours following the last treatment), the animals were sacrificed and the thymi weights were recorded. […] It is evident that the higher the inhibition of thymus activity at a given dose, the more toxic the compound is.

CCCC(=O)O[C@]1(C(=O)CO)CC[C@H]2[C@@H]3CCC4=CC(=O)CC[C@]4(C)[C@H]3[C@@H](O)C[C@@]21C [Hydrocortisone 17-butyrate, reference compound]
Ear Weight, % Increase [1]: −3.6 ± 3.5 % | Ear Weight, % Inhibition [1]: 106.0% | Ear Weight, Inflamed Ear [1]: 50.0 ± 2.3 mg | Ear Weight, Untreated Ear [1]: 52.0 ± 2.5 mg | Body wt. gain ([2]; Table III, 1 mg/pellet): 33.4 ± 1.4 g | Granulation tissue Dry wt. ([2]; Table III, 1 mg/pellet): 32.2 ± 5.0 mg/100 g body wt. | Granulation tissue Inhibition ([2]; Table III, 1 mg/pellet): 26.3% | Body wt. gain ([2]; Table III, 3 mg/pellet): 15.9 ± 1.4 g | Granulation tissue Dry wt. ([2]; Table III, 3 mg/pellet): 21.6 ± 2.2 mg/100 g body wt. | Granulation tissue Inhibition ([2]; Table III, 3 mg/pellet): 50.6% | Body wt. gain ([2]; Table III, 10 mg/pellet): 4.9 ± 1.0 g | Granulation tissue Dry wt. ([2]; Table III, 10 mg/pellet): 29.2 ± 3.1 mg/100 g body wt. | Granulation tissue Inhibition ([2]; Table III, 10 mg/pellet): 33.2% | Body wt. gain ([2]; Table IV, 300 μg/pellet): 26.2 ± 1.7 g | Granulation tissue Dry wt. ([2]; Table IV, 300 μg/pellet): 34.0 ± 5.3 mg | Granulation tissue Dry wt. Inhibition ([2]; Table IV, 300 μg/pellet): 58.1% | Granulation tissue Wet wt. ([2]; Table IV, 300 μg/pellet): 333 ± 21 mg | Granulation tissue Wet wt. Inhibition ([2]; Table IV, 300 μg/pellet): 41.2% | Thymus wt. ([2]; Table IV, 300 μg/pellet): 353 ± 37 mg | Thymus wt. (Decrease %) ([2]; Table IV, 300 μg/pellet): (20.7) % | Body wt. gain ([2]; Table IV, 1000 μg/pellet): 26.2 ± 1.2 g | Granulation tissue Dry wt. ([2]; Table IV, 1000 μg/pellet): 35.3 ± 4.2 mg | Granulation tissue Dry wt. Inhibition ([2]; Table IV, 1000 μg/pellet): 56.5% | Granulation tissue Wet wt. ([2]; Table IV, 1000 μg/pellet): 366 ± 24 mg | Granulation tissue Wet wt. Inhibition ([2]; Table IV, 1000 μg/pellet): 35.3% | Thymus wt. ([2]; Table IV, 1000 μg/pellet): 99 ± 7 mg | Thymus wt. (Decrease %) ([2]; Table IV, 1000 μg/pellet): (77.8) % | Body wt. gain ([2]; Table IV, 3000 μg/pellet): 6.7 ± 2.2 g | Granulation tissue Dry wt. ([2]; Table IV, 3000 μg/pellet): 28.0 ± 2.7 mg | Granulation tissue Dry wt. Inhibition ([2]; Table IV, 3000 μg/pellet): 65.5% | Granulation tissue Wet wt. ([2]; Table IV, 3000 μg/pellet): 329 ± 14 mg | Granulation tissue Wet wt. Inhibition ([2]; Table IV, 3000 μg/pellet): 41.9% | Thymus wt. ([2]; Table IV, 3000 μg/pellet): 58 ± 5 mg | Thymus wt. (Decrease %) ([2]; Table IV, 3000 μg/pellet): (87.0) % | Body wt. gain ([2]; Table IV, 10000 μg/pellet): -2.0 ± 2.4 g | Granulation tissue Dry wt. ([2]; Table IV, 10000 μg/pellet): 27.2 ± 2.4 mg | Granulation tissue Dry wt. Inhibition ([2]; Table IV, 10000 μg/pellet): 66.5% | Granulation tissue Wet wt. ([2]; Table IV, 10000 μg/pellet): 311 ± 7 mg | Granulation tissue Wet wt. Inhibition ([2]; Table IV, 10000 μg/pellet): 45.1% | Thymus wt. ([2]; Table IV, 10000 μg/pellet): 46 ± 7 mg | Thymus wt. (Decrease %) ([2]; Table IV, 10000 μg/pellet): (89.7) % | ED50 ([2]; Table XII, anti-inflammatory effect in cotton pellet granuloma): 480 μg/pellet | ED60 ([2]; dose causing 60% inhibition of granulation tissue weight): 1015 μg/pellet | Body weight gain (thymus weight in rats; 0.3 mg/kg/day s.c.): 17.0 ± 0.8 g | Thymus (thymus weight in rats; 0.3 mg/kg/day s.c.): 441 ± 27 mg | Thymus Inhibition (thymus weight in rats; 0.3 mg/kg/day s.c.): 6.4% | Body weight gain (thymus weight in rats; 1 mg/kg/day s.c.): 11.8 ± 0.8 g | Thymus (thymus weight in rats; 1 mg/kg/day s.c.): 323 ± 16 mg | Thymus Inhibition (thymus weight in rats; 1 mg/kg/day s.c.): 31.4% | Body weight gain (thymus weight in rats; 3 mg/kg/day s.c.): 7.3 ± 0.5 g | Thymus (thymus weight in rats; 3 mg/kg/day s.c.): 166 ± 5 mg | Thymus Inhibition (thymus weight in rats; 3 mg/kg/day s.c.): 64.8% | Body weight gain (thymus weight in rats; 10 mg/kg/day s.c.): -5.0 ± 1.1 g | Thymus (thymus weight in rats; 10 mg/kg/day s.c.): 65 ± 5 mg | Thymus Inhibition (thymus weight in rats; 10 mg/kg/day s.c.): 86.2% | TED40 (thymus weight in rats; Table X, dose required to achieve 40% inhibition of thymi weight, subcutaneous): 1.3 mg | TED50 (thymus weight in rats; Table X, dose required to achieve 50% inhibition of thymi weight, subcutaneous): 2.0 mg | TED40 (thymus weight in rats; Table XII, thymus inhibition effect, subcutaneously): 1.3 mg/kg
